Source: PMC11013945, “Antiprotozoal Activity of Plants Used in the Management of Sleeping Sickness in Angola and Bioactivity-Guided Fractionation of Brasenia schreberi J.F.Gmel and Nymphaea lotus L. Active against T. b. rhodesiense” (Molecules, 2024)
In brackets after ≈: the same amount, converted by molar mass. Blank lines part the entries; values can stand above or below the compound they belong to.

Assays:
[1] = test system: leishmania; set-up: method as in PMID 16643059; details: cited from earlier work
[2] = test system: P. falciparum; assay: In vitro growth inhibition of P. falciparum erythrocytic stages; assay type: cell-based, Plasmodium falciparum; details: Table 4, pure compounds; for IC50: Plasmodium falciparum
Procedure: (§1) In vitro growth inhibitory activity of the extracts and pure compounds against T. cruzi (intracellular amastigote forms grown in L6 rat myoblasts), L. donovani (axenic amastigote forms in acidic medium or intracellular amastigotes in mouse primary macrophages), and P. falciparum (erythrocytic stages in culture) was determined as described previously. Testing against intracellular L. donovani was performed as follows: mouse peritoneal macrophages (4 × 104 in 100 µL RPMI 1640 medium with 10% heat-inactivated FBS) in 96-well plates were infected with amastigotes (2 × 105 in 100 µL medium). After 24 h, the medium was exchanged twice to remove free amastigotes. Test compounds were added, and the plates incubated for 96 h at 37 °C under 5% CO2. Then, the medium was removed, the cells were fixed with 50 µL 4% formaldehyde, and stained with 5 µM DRAQ5. Nine images were taken per well on a ImageXpress XLS (MD) microscope (Molecular Devices, San Jose, CA, USA) using a 20× air objective (635 nm excitation: 690/50 emission) and analyzed with a script developed on Meta Xpress (MD). Cytotoxicity against L6 cells was assessed by using a similar protocol as outlined for IC50 determination with T. b. rhodesiense, except that rat skeletal myoblasts (L6 cells) were used. The medium was RPMI 1640 medium supplemented with 1% L-glutamine (200 mM) and 10% fetal bovine serum. Reference compounds were melarsoprol for T. b. rhodesiense, benznidazole for T. cruzi, miltefosine for L. donovani, chloroquine and artesunate for P. falciparum, and podophyllotoxin for L6 cells.

[3] = test system: T. cruzi; assay: In vitro growth inhibition of T. cruzi intracellular amastigotes grown in L6 rat myoblasts; assay type: cell-based, Trypanosoma cruzi; details: Table 4, pure compounds; for IC50: Trypanosoma cruzi, Myoblast, mean of two independent experiments
Procedure: as §1

[4] = test system: T. b. rhodesiense STIB 900; assay: IC50 determination against T. b. rhodesiense, serial dilutions, Alamar blue; assay type: cell-based, Trypanosoma brucei rhodesiense; details: Table 4, pure compounds; for IC50: Trypanosoma brucei
[5] = test system: L6 cells; assay: Cytotoxicity against L6 cells; assay type: cell-based; details: Rattus norvegicus, Table 4, pure compounds
Procedure: as §1

[6] = test system: epimastigote T. cruzi; set-up: method as in PMID 27347554; details: read-out: IC50 against epimastigote T. cruzi; cited from earlier work
[7] = test system: L. donovani; assay: In vitro growth inhibition of L. donovani axenic amastigotes; assay type: cell-based, Leishmania donovani; details: Table 4, pure compounds; for IC50: Leishmania donovani, axenic amastigote
Procedure: as §1

[8] = test system: sn-glycerol-3-phosphate oxidase system of T. b. brucei; details: in vitro; cited from earlier work
[9] = test system: P. falciparum; set-up: method as in PMID 29333044; details: isolated from Alectryon serratus leaves; cited from earlier work
[10] = test system: intracellular L. donovani; assay: Intramacrophage assay, intracellular L. donovani amastigotes in mouse peritoneal macrophages; assay type: cell-based; details: Leishmania donovani, Macrophage
Procedure: as §1, with “Reference compounds were melarsoprol for T. b. rhodesiense, benznidazole for T. cruzi, miltefosine for L. donovani, chloroquine and artesunate for P. falciparum, and podophyllotoxin for L6 cells.” left out

[11] = test system: Trypanosoma brucei rhodesiense STIB900; assay: Growth inhibition (GI) of T. b. rhodesiense bloodstream forms at a single concentration, Alamar blue; assay type: cell-based; details: read-out: Growth inhibition (%)
Procedure: A total of 122 extracts were prepared from different parts of the nine plant species. Each plant part was extracted consecutively with hexane, dichloromethane, ethanol, methanol, and water. The extracts were tested for their in vitro growth inhibition (GI) activity against bloodstream forms of Trypanosoma brucei rhodesiense STIB900, our reference strain for drug testing against African trypanosomes at a concentration of 20 µg/mL. […] A detailed description of the plant species, the parts extracted, solvent, extraction yield, and percentage of growth inhibition (GI%) is given in Supplementary Table S1.
Growth inhibition (GI) activity against T. b. rhodesiense STIB 900 was determined as follows: in a 96-well microtiter plate, 50 µL of HMI-9 medium supplemented with 15% heat-inactivated horse serum were added to each well. A total of 10 µL of the plant extract stock solution was added to each well. Then, 50 µL of bloodstream-form trypanosomes were added, adjusted with a cell counter (CASY, Schärfe System, Germany) to 4 × 10^4 cells/mL. […] Then, the plate was read with a Spectramax Gemini XS microplate fluorometer (Molecular Devices Corporation, Sunnyvale, CA, USA) using an excitation wavelength of 530 nm and an emission wavelength of 590 nm. Fluorescence was expressed as percentage of the untreated control. […]

[12] = mean of two independent experiments

Structure (SMILES): C=CCCC/C=C\C/C=C\CCCCCCCc1cc(O)cc(O)c1 [5-heptadeca-8′Z,11′Z,16-trienylresorcinol]
IC50 against leishmania [1]: 3.6 µg/mL (≈ 10.5 µM)

Structure (SMILES): CCOC(=O)c1cc(O)c(O)c(O)c1 [Ethyl gallate (4), ethyl gallate]
IC50 [2]: 2.1 µg/mL (≈ 10.6 µM) | P. falciparum IC50 [2]: 3.0 µg/mL | P. falciparum SI [2]: 4.9 | T. cruzi SI [3]: 0.9 | IC50 [3]: 16 µg/mL (≈ 80.7 µM) | T. b. rhodesiense SI [4]: 25 | T. b. rhodesiense IC50 [4, 12]: 0.6 µg/mL | IC50 [4, 12]: 0.5 µg/mL (≈ 2.52 µM) | IC50 [5]: 15 µg/mL (≈ 75.7 µM) | IC50 [6]: > 100 µM | IC50 [7]: 6.8 µg/mL (≈ 34.3 µM) | L. donovani SI [7]: 2.2

Structure (SMILES): COC(=O)c1cc(O)c(O)c(O)c1 [Methyl gallate (2), methyl gallate]
IC50 [2]: 3 µg/mL (≈ 16.3 µM) | P. falciparum IC50 [2]: 2.1 µg/mL | P. falciparum SI [2]: 7.8 | T. cruzi SI [3]: 1.0 | IC50 [3]: 16 µg/mL (≈ 86.9 µM) | T. b. rhodesiense SI [4]: 15 | IC50 [4, 12]: 1.1 µg/mL (≈ 5.97 µM) | IC50 [5]: 16 µg/mL (≈ 86.9 µM) | IC50 [6]: > 100 µM | inhibition of sn-glycerol-3-phosphate oxidase system [8]: inhibited | IC50 [7]: 8.5 µg/mL (≈ 46.2 µM) | L. donovani SI [7]: 1.9 | IC50 against P. falciparum [9]: 0.0025 µg/mL (≈ 0.0136 µM)

Structure (SMILES): Nc1nc(N)nc(Nc2ccc([As]3SCC(CO)S3)cc2)n1 (stereo not drawn) [melarsoprol]
inhibition at 0.072 µg/mL [11]: 98.4%

Second part, led by results:

IC50 [2]: > 10 µg/mL | IC50 [3]: 66 µg/mL (≈ 388 µM) | IC50 [7]: 56 µg/mL (≈ 329 µM)
Structure (SMILES): O=C(O)c1cc(O)c(O)c(O)c1 [Gallic acid (1), gallic acid]
T. cruzi SI [3]: 0.2 | T. b. rhodesiense SI [4]: 34 | IC50 [4, 12]: 0.5 µg/mL (≈ 2.94 µM) | IC50 [5]: 16 µg/mL (≈ 94.1 µM) | IC50 [6]: > 100 µM | inhibition of sn-glycerol-3-phosphate oxidase system [8]: inhibited | L. donovani SI [7]: 0.3 | IC50 against P. falciparum [9]: 0.0013 µg/mL (≈ 0.00764 µM)

IC50 [3]: 12 µg/mL (≈ 25 µM) | IC50 [7]: 53 µg/mL (≈ 110 µM)
Structure (SMILES): O=c1c(O)c(-c2ccc(O)c(O)c2)oc2c(O)c(O[C@@H]3O[C@H](CO)[C@@H](O)[C@H](O)[C@H]3O)cc(O)c12 [Gossypetin-7-O-β-glucopyranoside (6), gossypetin-7-O-β-glucopyranoside]
T. cruzi SI [3]: 0.8 | T. b. rhodesiense SI [4]: 1.6 | IC50 [4, 12]: 5.5 µg/mL (≈ 11.4 µM) | IC50 [5]: 8.9 µg/mL (≈ 18.5 µM) | L. donovani SI [7]: 0.2

IC50 [3]: 49 µg/mL (≈ 106 µM) | IC50 [7]: 52 µg/mL (≈ 112 µM)
Structure (SMILES): O=c1cc(-c2ccc(O)c(O)c2)oc2c(O)c(O[C@@H]3O[C@H](CO)[C@@H](O)[C@H](O)[C@H]3O)cc(O)c12 [Hypolaetin-7-O-glucoside (7), hypolaetin-7-O-glucoside]
T. cruzi SI [3]: 0.4 | T. b. rhodesiense SI [4]: 3.2 | IC50 [4, 12]: 5.7 µg/mL (≈ 12.3 µM) | IC50 [5]: 19 µg/mL (≈ 40.9 µM) | L. donovani SI [7]: 0.4

IC50 [2]: 6.7 µg/mL (≈ 7.12 µM) | IC50 [3]: 44 µg/mL (≈ 46.8 µM) | IC50 [7]: 15 µg/mL (≈ 15.9 µM)
Structure (SMILES): O=C(OC[C@@H]1O[C@H](OC(=O)c2cc(O)c(O)c(O)c2)[C@@H](OC(=O)c2cc(O)c(O)c(O)c2)[C@H](OC(=O)c2cc(O)c(O)c(O)c2)[C@H]1OC(=O)c1cc(O)c(O)c(O)c1)c1cc(O)c(O)c(O)c1 [Pentagalloyl-β-glucopyranoside (5), 1,2,3,4,6 pentagalloyl-β-glucopyranoside]
P. falciparum SI [2]: 3.1 | T. cruzi SI [3]: 0.5 | T. b. rhodesiense SI [4]: 1.0 | IC50 [4, 12]: 20 µg/mL (≈ 21.3 µM) | IC50 [5]: 21 µg/mL (≈ 22.3 µM) | L. donovani SI [7]: 1.4

IC50 [3]: 9.1 µg/mL (≈ 26.6 µM) | IC50 [10]: > 11 µg/mL | IC50 [7]: 2.5 µg/mL (≈ 7.3 µM)
Structure (SMILES): CC/C=C\C/C=C\C/C=C\CCCCCCCc1cc(O)cc(O)c1 [Resorcinol-alkyl (8), 5-[(8Z,11Z,14Z)-heptadeca-8,11,14-trienyl] resorcinol]
T. cruzi SI [3]: 1.4 | T. b. rhodesiense SI [4]: 2.5 | IC50 [4, 12]: 5.3 µg/mL (≈ 15.5 µM) | IC50 [5]: 13 µg/mL (≈ 38 µM) | L. donovani SI [7]: 5.2
